From US20240360179A1, “STAPLED PEPTIDES AND METHODS THEREOF” (FOG PHARMACEUTICALS, INC., priority 2021, published 2024)

test system: COLO320DM cells; experiment: COLO320DM proliferation assay (CellTiter-Glo); assay type: cell-based, human; settings: absolute IC50, read-out: COLO320DM Proliferation Abs IC50
Protocol: COLO320DM proliferation assay IC50: In some embodiments, inhibition of cell proliferation by provided technologies were assessed using cell lines related to or from certain conditions, disorders or diseases. In some embodiments, cell proliferation was assessed in COLO320DM cells. In some embodiments, assessment was performed using the following procedure: On Day 1, cultured COLO320DM cells in a T75 flask were trypsinized in 3 mL of 0.250% trypsin/EDTA for 5 min and quenched with 10 mL RPMI-1640+4% HI FBS assay media. The cells were spun down at 1200 rpm for 5 min, the cell pellet collected and re-suspended at 5000 cells/mL in assay media. Using a Combi liquid handler, cells were dispensed (50 uL, 250 cells/well) into three 384 well plates. Plates were incubated at 37° C., 5% CO2 for 18-22 h. On day 2, compounds were added. A liquid handling system was used to prepare the compound dilution and dispense compound into assay plates. The compounds were serially diluted 1/2 in 90% DMSO to create a 7 point dose curve. From compound plate, 100 nL of compound were dispensed directly into wells of the assay plates to create a dose curve starting at 20 uM and ending at 313 nM. Assay plates were incubated at 37° C., 5% CO2 for 96 h. On day 6, assay plates were removed from the incubator and allowed to sit at room temperature for 30 min. Using a liquid handler, 20 uL of CellTiter Glo reagent was added to each well. The assay plates were shaken for 2 min and allowed to sit on the bench for 10-15 minutes. The assay plates were read using the CellTiter Glo protocol on a GloMax microplate reader, and the data analyzed using GraphPad Prism. Activities of various agents, including various stapled peptides in Table E2, were confirmed.
In some embodiments, an assessment was performed as follows. On day 0, cells were seeded in cell culture media (RPMI1640, 4% FBS) in a 96-well plate at desired density, typically at 1000 cells/well. On day 1, 10 mM agent stock solution (in DMSO) was first serially diluted into DMSO at 1:2 ratio, followed by diluting with cell culture media at two times of the final concentrations. Finally, agent-containing media were introduced to cell culture wells already having the same volume of cell culture media. Cells were incubated with agents for desired days before lysed for CellTiter-Glo® Luminescent Cell Viability Assay according to the manufacture instruction (Promega, G7570). Luminescent signal was obtained from a microplate reader (GloMax, Promega). Cell viability data was expressed as % relative to DMSO control wells.
Proliferation Assay. In some embodiments, various proliferation assays are utilized to characterize or assess provided technologies. In some embodiments, on day 0, cells were seeded in cell culture media in a 96-well plate at desired density, typically at 1000 cells/well. On day 1, 10 mM compound stock solution was first serially diluted into DMSO, followed by diluting with cell culture media at two times of the final concentrations. Finally, compound-containing media were introduced to cell culture wells already having the same volume of cell culture media. Cells were incubated with compounds for desired days before lysed for CTG according to the manufacture instruction (G7570, Promega). Luminescent signal was obtained from a microplate reader (GloMax, Promega).

Molecule | IC50 [µM]
CC(=O)N1CCC[C@]12CC=CCCCC1(CCCC=CCCCOC(=O)N3CC[C@@]4(C3)NC(=O)[C@H](CCCCNC(=O)CC[C@@H](C(=O)N[C@@H](C)C(N)=O)NC(=O)[C@H](Cc3csc5ccccc35)NC(=O)[C@H](Cc3ccsc3)NC4=O)NC(=O)[C@H](Cc3ccccc3)NC(=O)[C@H](C)NC(=O)C(C)(C)NC(=O)[C@H](Cc3cccc(C(=O)O)c3)NC(=O)[C@H](CC(=O)O)NC1=O)NC(=O)[C@H](CCCN1CCOCC1)NC(=O)[C@H](CC(=O)O)NC2=O (relative stereo) [I-313, Ac-PL3-Asp-MorphNva-B5-Asp-3COOHF-Aib-Ala-Phe-Lys*3-PyrS2-3Thi-BztA-GlnR*3-Ala-NH2] | > 20

same assay, conditions: read-out: COLO320DM Proliferation Abs IC50

Molecule | IC50 [µM]
Ac-PL3-Asp-DipA-B5-Asp-3COOHF-Ala-Ala-Phe-Lys*3-PyrS2-3Thi-BztA-GlnR*3-Ala-NH2 [I-982] | ≤ 10
Ac-PL3-Asp-DipA-B5-Asp-3COOHF-Val-Ala-Phe-Lys*3-PyrS2-3Thi-BztA-GlnR*3-Ala-NH2 [I-984] | ≤ 10
Ac-PL3-Asp-DipA-B5-Asp-3COOHF-Ala-Ala-Phe-Lys*3-PyrS2-3Thi-34ClF-GlnR*3-[mPEG8]-Lys-NH2 [I-1701] | ≤ 10
Ac-PL3-Asp-Chg-B5-Asp-3COOHF-Aib-Ala-Phe-Lys*3-PyrS2-Phe-34ClF-GlnR*3-NH2 [I-1048] | ≤ 10
Ac-PL3-Asp-Npg-B5-Asp-3COOHF-Aib-Ala-Phe-Lys*3-PyrS2-3Thi-BztA-GlnR*3-Pro-NH2 [I-719] | ≤ 10
Ac-PL3-Asp-Npg-B5-Asp-3COOHF-Aib-Ala-Phe-Lys*3-PyrS2-3Thi-BztA-GlnR*3-Ala-Ala-Lys-Leu-Pro-Val-nLeu-NH2 [I-815] | ≤ 10
Ac-PL3-Asp-Ile-B5-Asp-3COOHF-CyLeu-Ala-Phe-Lys*3-PyrS2-Phe-34ClF-GlnR*3-NH2 [I-1052] | ≤ 10
Ac-PL3-Asp-DipA-B5-Asp-3COOHF-Ala-Ala-Phe-Lys*3-PyrS2-3Thi-34ClF-GlnR*3-Ala-Ala-[Oct-dPEG2]-Lys-NH2-NH2 [I-1789] | ≤ 10
CC(=O)N1CCC[C@]12CC=CCCCC1(CCCC=CCCCOC(=O)N3CC[C@@]4(C3)NC(=O)[C@H](CCCCNC(=O)CC[C@@H](C(=O)N[C@@H](C)C(N)=O)NC(=O)[C@H](Cc3csc5ccccc35)NC(=O)[C@H](Cc3ccsc3)NC4=O)NC(=O)[C@H](Cc3ccccc3)NC(=O)[C@H](C)NC(=O)C(C)(C)NC(=O)[C@H](Cc3cccc(C(=O)O)c3)NC(=O)[C@H](CC(=O)O)NC1=O)NC(=O)[C@H](C1CCCCC1)NC(=O)[C@H](CC(=O)O)NC2=O (single isomer, unassigned) [I-253, Ac-PL3-Asp-Chg-B5-Asp-3COOHF-Aib-Ala-Phe-Lys*3-PyrS2-3Thi-BztA-GlnR*3-Ala-NH2] | ≤ 10
Ac-PL3-Asp-DipA-B5-Asp-3COOHF-CyLeu-Ala-Phe-Lys*3-PyrS2-2F3MeF-BztA-GlnR*3-Ser-NH2 [I-1772] | ≤ 10
Ac-PL3-Asp-Ile-B5-Asp-3COOHF-Ala-Ala-Phe-TriAzLys*3-PyrS2-Phe-34ClF-sAla*3-NH2 [I-1863] | ≤ 10
Ac-PL3-Asp-Npg-B5-Asp-3COOHF-Aib-Ala-Phe-Lys*3-PyrS2-3Thi-34ClF-GlnR*3-Ala-Ala-Ala-[mPEG37]-Lys [I-1708] | ≤ 10
Ac-PL3-Asp-DipA-B5-Asp-3COOHF-CyLeu-Ala-Phe-Lys*3-PyrS2-2F3MeF-BztA-GlnR*3-NH2 [I-1766] | > 20
Ac-PL3-Asp-Chg-B5-Asp-3COOHF-Aib-Ala-Phe-Lys*3-PyrS2-2ClF-34ClF-GlnR*3-NH2 [I-1505] | ≤ 10
Ac-PL3-Asp-Npg-B5-Asp-3COOHF-Aib-Ala-Phe-Lys*3-PyrS2-3Thi-BztA-GlnR*3-[mPEG4]Lys-NH2 [I-1181] | > 20
Ac-PL3-Asp-Chg-B5-Asp-3COOHF-CyLeu-Ala-Phe-Lys*3-PyrS2-3Thi-34ClF-GlnR*3-NH2 [I-1044] | ≤ 10
Ac-PL3-Asp-Npg-B5-Asp-3COOHF-Aib-Ala-Phe-Lys*3-PyrS2-3Thi-BztA-GlnR*3-Ala-Val-Pro-Ala-Leu-Arg-NH2 [I-816] | ≤ 10
Ac-PL3-Asp-Npg-B5-Asp-3COOHF-Aib-Ala-Phe-Lys*3-PyrS2-3Thi-BztA-GlnR*3-Ala-Ala-Lys-Ala-Ala-Ala-Lys-NH2 [I-1158] | ≤ 10

Molecule | IC50 [µM]
Ac-PL3-Asp-Ile-B5-Asp-3COOHF-Ala-Ala-Phe-sCH2S*3-PyrS2-Phe-34ClF-TriAzLys*3-NH2 [I-1866] | 10 to 20
CCCC[C@@H]1NC(=O)[C@H](CC(=O)O)NC(=O)[C@]2(CC=CCCCC3(CCCC=CCCCOC(=O)N4CC[C@@]5(C4)NC(=O)[C@H](CCCCNC(=O)CC[C@@H](C(=O)N[C@@H](C)C(N)=O)NC(=O)[C@H](Cc4csc6ccccc46)NC(=O)[C@H](Cc4ccsc4)NC5=O)NC(=O)[C@H](Cc4ccccc4)NC(=O)[C@H](C)NC(=O)C(C)(C)NC(=O)[C@H](Cc4cccc(C(=O)O)c4)NC(=O)[C@H](CC(=O)O)NC3=O)NC1=O)CCCN2C(C)=O (relative stereo) [I-245, Ac-PL3-Asp-nLeu-B5-Asp-3COOHF-Aib-Ala-Phe-Lys*3-PyrS2-3Thi-BztA-GlnR*3-Ala-NH2] | ≤ 10
Ac-PL3-Asp-Npg-B5-Asp-3COOHF-Aib-Ala-Phe-Lys*3-PyrS2-3Thi-BztA-GlnR*3-[mPEG8]Lys-NH2 [I-1182] | > 20
Ac-PL3-Asp-Npg-B5-Asp-3COOHF-Aib-Ala-Phe-Lys*3-PyrS2-3Thi-34ClF-GlnR*3-Ser-NH2 [I-869] | ≤ 10
Ac-PL3-Asp-Npg-B5-Asp-3COOHF-Aib-Ala-Phe-Lys*3-PyrS2-[3PyPrpc]2NH2F-BztA-GlnR*3-Ala-NH2 [I-1742] | 10 to 20
Ac-PL3-Asp-Npg-B5-Asp-3COOHF-Aib-Ala-Phe-Lys*3-PyrS2-3Thi-34ClF-GlnR*3-Ala-Ala-Ala-[mPEG8]-Lys [I-1707] | ≤ 10
2IAPAc-PL3-Asp-Npg-B5-Asp-3COOHF-Aib-Ala-Phe-Lys*3-PyrS2-3Thi-BztA-GlnR*3-Ala-NH2 [I-1064] | > 20
Ac-PL3-Asp-Ile-B5-Asp-3COOHF-Aib-Ala-Phe-sCH2S*3-PyrS2-Phe-34ClF-TriAzLys*3-NH2 [I-1859] | ≤ 10
124TriAc-PL3-Asp-Npg-B5-Asp-3COOHF-Aib-Ala-Phe-Lys*3-PyrS2-3Thi-BztA-GlnR*3-Ala-NH2 [I-1075] | > 20
Ac-PL3-Asp-Ile-B5-Asp-3COOHF-Aib-Ala-Phe-sAla*3-PyrS2-Phe-34ClF-TriAzLys*3-NH2 [I-1857] | 10 to 20
CC(=O)N1CCC[C@]12CC=CCCCC1(CCCC=CCCCOC(=O)N3CC[C@@]4(C3)NC(=O)[C@H](CCCCNC(=O)CC[C@@H](C(=O)N[C@@H](C)C(N)=O)NC(=O)[C@H](Cc3csc5ccccc35)NC(=O)[C@H](Cc3ccccc3C)NC4=O)NC(=O)[C@H](Cc3ccccc3)NC(=O)[C@H](C)NC(=O)C(C)(C)NC(=O)[C@H](Cc3cccc(C(=O)O)c3)NC(=O)[C@H](CC(=O)O)NC1=O)NC(=O)[C@H](CC(C)(C)C)NC(=O)[C@H](CC(=O)O)NC2=O (relative stereo) [I-294, Ac-PL3-Asp-Npg-B5-Asp-3COOHF-Aib-Ala-Phe-Lys*3-PyrS2-2MeF-BztA-GlnR*3-Ala-NH2] | ≤ 10
Ac-PL3-Asp-Ile-B5-Asp-3COOHF-Aib-Ala-Phe-sCH2S*3-PyrS2-Phe-34ClF-TriAzOrn*3-NH2 [I-1862] | ≤ 10
Ac-PL3-Asp-Chg-B5-Asp-3COOHF-CyLeu-Ala-Phe-Lys*3-PyrS2-Phe-34ClF-GlnR*3-NH2 [I-1056] | ≤ 10
Ac-PL3-Asp-DipA-B5-Asp-3COOHF-CyLeu-Ala-Phe-Lys*3-PyrS2-3Thi-34ClF-GlnR*3-NH2 [I-1117] | ≤ 10
Ac-PL3-Asp-Ile-B5-Asp-3COOHF-Aib-Ala-Phe-GlnR*3-PyrS2-Phe-34ClF-1MeK*3-NH2 [I-1370] | ≤ 10
Ac-PL3-Asp-DipA-B5-Asp-3COOHF-CyLeu-Ala-Phe-Lys*3-PyrS2-2F3MeF-34ClF-GlnR*3-Leu-NH2 [I-1769] | ≤ 10
Ac-PL3-Asp-Npg-B5-Asp-3COOHF-Aib-Ala-Phe-Lys*3-PyrS2-[2PyzCO]2NH2F-BztA-GlnR*3-Ala-NH2 [I-1755] | > 20
Ac-PL3-Asp-Ile-B5-Asp-3COOHF-Aib-Ala-Phe-GlnR*3-PyrS2-Phe-34ClF-Lys*3-NH2 [I-1367] | ≤ 10
